pEC50, pIC50: −log10 of the molar value.
Columns and labels:
[1] = target: SREBP-2 (Homo sapiens (Human), UniProt Q12772); assay: In vitro assay SREBP-2: PathHunter U2OS SREBP-2 Nuclear Translocation Cell Line, U18666A-stimulated; format: cell-based; settings: PathHunter U2OS SREBP-2 nuclear translocation cells, U18666A 10 μM, overnight (16 hours)
[2] = target: LXRβ (Homo sapiens (Human), UniProt P55055); assay: In vitro assay LXRβ: PathHunter NHR CHO cells, LXRβ / Steroid Receptor Co-activator Peptide enzyme fragment complementation; format: cell-based; settings: PathHunter NHR CHO cells, full-length human LXRβ and SRCP, chemiluminescent signal; read-out: LXRβ PPI
Summary of the method: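 Co-activator recruitment measured by chemiluminescence after signal generation. The CHO line carries full-length human LXRβ tagged with ProLink and an SRCP–enzyme acceptor fusion in the nucleus; cells sat overnight at 37° C before testing, in charcoal-dextran filtered serum medium with 1% final vehicle.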

LXRβ, sequence (P55055 whole entry, the tested form may be a part): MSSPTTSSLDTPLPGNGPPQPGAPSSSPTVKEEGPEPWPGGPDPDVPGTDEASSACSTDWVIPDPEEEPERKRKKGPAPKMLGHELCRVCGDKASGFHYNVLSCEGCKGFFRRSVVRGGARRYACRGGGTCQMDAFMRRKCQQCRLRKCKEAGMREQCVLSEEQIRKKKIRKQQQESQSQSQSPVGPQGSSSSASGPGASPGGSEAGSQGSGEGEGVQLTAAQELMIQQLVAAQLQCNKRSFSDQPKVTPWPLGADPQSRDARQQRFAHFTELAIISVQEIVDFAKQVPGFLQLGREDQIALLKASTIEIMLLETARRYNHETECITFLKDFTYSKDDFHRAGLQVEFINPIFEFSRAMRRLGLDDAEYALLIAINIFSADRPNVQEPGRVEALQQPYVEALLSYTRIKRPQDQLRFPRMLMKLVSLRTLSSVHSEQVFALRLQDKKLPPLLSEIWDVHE

Row | Structure (SMILES) | pIC50 [1] | pEC50 [2]
1 | COC(=O)N1CCN(C(=S)CC[C@@H](C)[C@H]2CC[C@H]3[C@@H]4CC=C5C[C@@H](O)CC[C@]5(C)[C@H]4CC[C@]23C)CC1 [Example 550, methyl4-[(4R)-4-[(1R,3aS,3bS,7S,9aR,9bS,11aR)-7-hydroxy-9a,11a-dimethyl-1H,2H,3H,3aH,3bH,4H,6H,7H,8H,9H,9aH,9bH,10H,11H,11aH-cyclopenta[a]phenanthren-1-yl]pentanethioyl]piperazine-1-carboxylate] | > 6.60 | < 5.00
2 | CSC(=O)N1CCN(C(=O)CC[C@@H](C)[C@H]2CC[C@H]3[C@@H]4CC=C5C[C@@H](O)CC[C@]5(C)[C@H]4CC[C@]23C)CC1 [Example 551, (4R)-4-[(1R,3aS,3bS,7S,9aR,9bS,11aR)-7-hydroxy-9a,11a-dimethyl-1H,2H,3H,3aH,3bH,4H,6H,7H,8H,9H,9aH,9bH,10H,11H,11aH-cyclopenta[a]phenanthren-1-yl]-1-{4-[(methylsulfanyl)carbonyl]piperazin-1-yl}pentan-1-one] | > 6.60 | < 5.00
3 | COC(=O)N1CCC12CN(C(=O)CC[C@@H](C)[C@H]1CC[C@H]3[C@@H]4CC=C5C[C@@H](O)CC[C@]5(C)[C@H]4CC[C@]13C)C2 [Example 552, methyl6-((R)-4-((3S,8S,9S,10R,13R,14S,17R)-3-hydroxy-10,13-dimethyl-2,3,4,7,8,9,10,11,12,13,14,15,16,17-tetradecahydro-1H-cyclopenta[a]phenanthren-17-yl)pentanoyl)-1,6-diazaspiro[3.3]heptane-1-carboxylate] | 5.00 to 6.00 | < 5.00
4 | COC(=O)N1CCSC12CN(C(=O)CC[C@@H](C)[C@H]1CC[C@H]3[C@@H]4CC=C5C[C@@H](O)CC[C@]5(C)[C@H]4CC[C@]13C)C2 [Example 553, Methyl 2-((R)-4-((3S,8S,9S,10R,13R,14S,17R)-3-hydroxy-10,13-dimethyl-2,3,4,7,8,9,10,11,12,13,14,15,16,17-tetradecahydro-1H-cyclopenta[a]phenanthren-17-yl)pentanoyl)-5-thia-2,8-diazaspiro[3.4]octane-δ-carboxylate] | 6.00 to 6.60 | < 5.00
5 | COC(=O)N1CCC2(CCN(C(=O)CC[C@@H](C)[C@H]3CC[C@H]4[C@@H]5CC=C6C[C@@H](O)CC[C@]6(C)[C@H]5CC[C@]34C)C2)C1 (stereo partly drawn) [Example 554, Methyl 7-((R)-4-((3S,8S,9S,10R,13R,14S,17R)-3-hydroxy-10,13-dimethyl-2,3,4,7,8,9,10,11,12,13,14,15,16,17-tetradecahydro-1H-cyclopenta[a]phenanthren-17-yl)pentanoyl)-2,7-diazaspiro[4.4]nonane-2-carboxylate] | > 6.60 | < 5.00
6 | C[C@H](CCC(=O)N1CC(C)(CO)C1)[C@H]1CC[C@H]2[C@@H]3CC=C4C[C@@H](O)CC[C@]4(C)[C@H]3CC[C@]12C [Example 555, (R)-4-((3S,8S,9S,10R,13R,14S,17R)-3-hydroxy-10,13-dimethyl-2,3,4,7,8,9,10,11,12,13,14,15,16,17-tetradecahydro-1H-cyclopenta[a]phenanthren-17-yl)-1-(3-(hydroxymethyl)-3-methylazetidin-1-yl)pentan-1-one] | > 6.60 | < 5.00
7 | C[C@H](CCC(=O)N1CCN(C(C)(C)C)CC1)[C@H]1CC[C@H]2[C@@H]3CC=C4C[C@@H](O)CC[C@]4(C)[C@H]3CC[C@]12C [Example 557, (4R)-4-[(1R,3aS,3bS,7S,9aR,9bS,11aR)-7-hydroxy-9a,11a-dimethyl-1H,2H,3H,3aH,3bH,4H,6H,7H,8H,9H,9aH,9bH,10H,11H,11aH-cyclopenta[a]phenanthren-1-yl]-1-(4-tert-butylpiperazin-1-yl)pentan-1-one] | 6.00 to 6.60 | < 5.00
8 | C[C@H](CCC(=O)N1CCN(c2ccnc(O)n2)CC1)[C@H]1CC[C@H]2[C@@H]3CC=C4C[C@@H](O)CC[C@]4(C)[C@H]3CC[C@]12C [Example 559, (R)-4-((3S,8S,9S,10R,13R,14S,17R)-3-hydroxy-10,13-dimethyl-2,3,4,7,8,9,10,11,12,13,14,15,16,17-tetradecahydro-1H-cyclopenta[a]phenanthren-17-yl)-1-(4-(2-hydroxypyrimidin-4-yl)piperazin-1-yl)pentan-1-one] | > 6.60 | < 5.00
9 | C[C@H](CCC(=O)N1CCN(c2ccnc(N)n2)CC1)[C@H]1CC[C@H]2[C@@H]3CC=C4C[C@@H](O)CC[C@]4(C)[C@H]3CC[C@]12C [Example 560, (R)-1-(4-(2-aminopyrimidin-4-yl)piperazin-1-yl)-4-((3S,8S,9S,10R,13R,14S,17R)-3-hydroxy-10,13-dimethyl-2,3,4,7,8,9,10,11,12,13,14,15,16,17-tetradecahydro-1H-cyclopenta[a]phenanthren-17-yl)pentan-1-one] | > 6.60 | < 5.00
10 | C[C@H](CCC(=O)N1CCN(c2ccnc(N(C)C)n2)CC1)[C@H]1CC[C@H]2[C@@H]3CC=C4C[C@@H](O)CC[C@]4(C)[C@H]3CC[C@]12C [Example 562, (R)-1-(4-(2-(dimethylamino)pyrimidin-4-yl)piperazin-1-yl)-4-((3S,8S,9S,10R,13R,14S,17R)-3-hydroxy-10,13-dimethyl-2,3,4,7,8,9,10,11,12,13,14,15,16,17-tetradecahydro-1H-cyclopenta[a]phenanthren-17-yl)pentan-1-one] | > 6.60 | < 5.00
11 | CCOc1nccc(N2CCN(C(=O)CC[C@@H](C)[C@H]3CC[C@H]4[C@@H]5CC=C6C[C@@H](O)CC[C@]6(C)[C@H]5CC[C@]34C)CC2)n1 [Example 563, (R)-1-(4-(2-ethoxypyrimidin-4-yl)piperazin-1-yl)-4-((3S,8S,9S,10R,13R,14S,17R)-3-hydroxy-10,13-dimethyl-2,3,4,7,8,9,10,11,12,13,14,15,16,17-tetradecahydro-1H-cyclopenta[a]phenanthren-17-yl)pentan-1-one] | > 6.60 | < 5.00
12 | C[C@H](CCC(=O)N1CCN(c2ccnc(OCCO)n2)CC1)[C@H]1CC[C@H]2[C@@H]3CC=C4C[C@@H](O)CC[C@]4(C)[C@H]3CC[C@]12C [Example 564, (4R)-4-[(1R,3aS,3bS,7S,9aR,9bS,11aR)-7-hydroxy-9a,11a-dimethyl-1H,2H,3H,3aH,3bH,4H,6H,7H,8H,9H,9aH,9bH,10H,11H,11aH-cyclopenta[a]phenanthren-1-yl]-1-{4-[2-(2-hydroxyethoxy)pyrimidin-4-yl]piperazin-1-yl}pentan-1-one] | > 6.60 | < 5.00
13 | C[C@H](CCC(=O)N1CCN(C(=O)c2cnn(C)c2)[C@@H](C)C1)[C@H]1CC[C@H]2[C@@H]3CC=C4C[C@@H](O)CC[C@]4(C)[C@H]3CC[C@]12C [Example 565, (4R)-4-[(1R,3aS,3bS,7S,9aR,9bS,11aR)-7-hydroxy-9a,11a-dimethyl-1H,2H,3H,3aH,3bH,4H,6H,7H,8H,9H,9aH,9bH,10H,11H,11aH-cyclopenta[a]phenanthren-1-yl]-1-[(3S)-3-methyl-4-(1-methyl-1H-pyrazole-4-carbonyl)piperazin-1-yl]pentan-1-one] | > 6.60 | < 5.00

— patent publication US20230340011A1 (Asteroid Therapeutics, priority 2022, published 2023)
